From publication PMC6576746, “Rational discovery of dual-indication multi-target PDE/Kinase inhibitor for precision anti-cancer therapy using structural systems pharmacology” (PLoS Computational Biology, 2019) come the findings set out here.

Common to all, as to experiment: biochemical
What all share (design): DiscoverX KinomeScan competition binding assay across human kinases; per cent of control at 10 and 100 uM

In one assay the target is MAK (Homo sapiens, UniProt P20794). To be noted: competition binding, % of control; read-out: Percent Control (100 uM Levosimendan). The procedure, abridged:
(§1)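 Binding is expressed as %control, normalised between positive and negative control signals. The compound (levosimendan) was tested at 10 μM and 100 μM in the DiscoverX KinomeScan competition binding format against human kinases.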

The next assay deals with MET (Homo sapiens, UniProt P08581). To be noted: competition binding, % of control; read-out: Percent Control (100 uM Levosimendan). In a few lines: as §1
The target of the next assay is EIF2AK1 (Homo sapiens, UniProt Q9BQI3). To be noted: competition binding, % of control; read-out: Percent Control (100 uM Levosimendan). In a few lines: as §1
The target of assay [1] is T1, RPS6KA4(Kin.Dom.2-C-terminal) (Homo sapiens, UniProt O75676).
T1 construct: Kin.Dom.2-C-terminal
The following applies: competition binding, % of control; read-out: Percent Control (100 uM Levosimendan). In a few lines: as §1

The target in another assay is T2, CDC2L1 (Homo sapiens, UniProt P21127).
T2 construct: gene CDK11B
The following applies: competition binding, % of control; read-out: Percent Control (100 uM Levosimendan). In a few lines: as §1

A further assay has as its target T3, VPS34 (Homo sapiens, UniProt Q8NEB9).
T3 construct: gene PIK3C3
To be noted: competition binding, % of control; read-out: Percent Control (100 uM Levosimendan). The procedure, abridged:
as §1

For a further assay, the target named is AURKB (Homo sapiens, UniProt Q96GD4). To be noted: competition binding, % of control. The procedure, abridged:
as §1

In assay [2] the target is T4, ABL1(H396P)-nonphosphorylated (Homo sapiens, UniProt P00519, H396P).
T4 construct: nonphosphorylated
To be noted: competition binding, % of control; read-out: Percent Control (100 uM Levosimendan). The procedure, abridged:
as §1

The next assay concerns the target DDR2 (Homo sapiens, UniProt Q16832). The following applies: competition binding, % of control; read-out: Percent Control (100 uM Levosimendan). In a few lines:
as §1

A further assay has as its target DYRK2 (Homo sapiens, UniProt Q92630). The following applies: competition binding, % of control; read-out: Percent Control (100 uM Levosimendan). The procedure, abridged:
as §1

The target of assay [3] is T5, ABL1(Q252H)-phosphorylated (Homo sapiens, UniProt P00519, Q252H).
T5 construct: phosphorylated
To be noted: competition binding, % of control; read-out: Percent Control (100 uM Levosimendan). The procedure, abridged:
as §1

The next assay has as its target PAK2 (Homo sapiens, UniProt Q13177). To be noted: competition binding, % of control; read-out: Percent Control (100 uM Levosimendan). In a few lines: as §1
In the next assay the target is NEK3 (Homo sapiens, UniProt P51956). To be noted: competition binding, % of control; read-out: Percent Control (100 uM Levosimendan). The procedure, abridged:
as §1

The target in a further assay is T6, DRAK2 (Homo sapiens, UniProt O94768).
T6 construct: gene STK17B
T6 sequence (O94768 whole entry): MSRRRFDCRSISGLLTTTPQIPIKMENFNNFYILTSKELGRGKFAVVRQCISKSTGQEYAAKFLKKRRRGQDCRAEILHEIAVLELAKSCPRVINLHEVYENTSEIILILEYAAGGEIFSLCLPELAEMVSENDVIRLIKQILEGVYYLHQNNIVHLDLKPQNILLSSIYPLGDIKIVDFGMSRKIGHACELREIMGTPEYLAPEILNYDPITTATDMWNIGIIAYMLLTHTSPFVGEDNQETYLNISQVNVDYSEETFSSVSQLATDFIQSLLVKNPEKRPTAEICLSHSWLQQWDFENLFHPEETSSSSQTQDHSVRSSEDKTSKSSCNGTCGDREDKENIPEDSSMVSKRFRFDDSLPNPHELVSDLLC
The following applies: competition binding, % of control. In a few lines:
as §1

The next assay concerns the target BMX (Homo sapiens, UniProt P51813). To be noted: competition binding, % of control; read-out: Percent Control (100 uM Levosimendan). The procedure, abridged: as §1
The target in a further assay is T7, CDK4-cyclinD3 (Homo sapiens, UniProt P11802).
T7 construct: cyclinD3
T7 sequence (P11802 whole entry): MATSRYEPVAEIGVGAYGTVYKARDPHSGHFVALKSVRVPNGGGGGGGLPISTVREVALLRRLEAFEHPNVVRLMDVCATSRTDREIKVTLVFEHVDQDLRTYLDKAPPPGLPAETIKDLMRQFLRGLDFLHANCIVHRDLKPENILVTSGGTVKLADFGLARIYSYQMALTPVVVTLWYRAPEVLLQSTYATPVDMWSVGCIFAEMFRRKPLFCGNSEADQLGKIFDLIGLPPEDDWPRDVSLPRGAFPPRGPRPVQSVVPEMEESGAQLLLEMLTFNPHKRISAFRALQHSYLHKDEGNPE
T7 sequence (P30281 whole entry partner): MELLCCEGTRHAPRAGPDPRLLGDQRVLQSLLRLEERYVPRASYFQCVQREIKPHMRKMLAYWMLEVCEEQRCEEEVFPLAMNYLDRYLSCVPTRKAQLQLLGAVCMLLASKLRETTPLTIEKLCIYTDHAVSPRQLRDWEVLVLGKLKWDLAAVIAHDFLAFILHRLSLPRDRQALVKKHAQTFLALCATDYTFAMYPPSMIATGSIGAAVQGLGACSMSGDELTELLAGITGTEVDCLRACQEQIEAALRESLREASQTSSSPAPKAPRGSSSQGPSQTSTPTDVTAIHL
The following applies: competition binding, % of control; read-out: Percent Control (100 uM Levosimendan). In a few lines:
as §1

Another assay deals with CAMK2D (Homo sapiens, UniProt Q13557). The following applies: competition binding, % of control; read-out: Percent Control (100 uM Levosimendan). In a few lines:
as §1

For another assay, the target named is ABL2 (Homo sapiens, UniProt P42684). The following applies: competition binding, % of control; read-out: Percent Control (100 uM Levosimendan). In a few lines:
as §1

For the next assay, the target named is T8, NIM1 (Homo sapiens, UniProt Q8IY84).
T8 construct: gene NIM1K
To be noted: competition binding, % of control; read-out: Percent Control (100 uM Levosimendan). In a few lines:
as §1

Where [4] appears, read: read-out: Percent Control (10 uM Levosimendan).
The mark [5] stands for this setting: read-out: Percent Control (100 uM Levosimendan).

Chain of AURKB (Q96GD4 whole entry): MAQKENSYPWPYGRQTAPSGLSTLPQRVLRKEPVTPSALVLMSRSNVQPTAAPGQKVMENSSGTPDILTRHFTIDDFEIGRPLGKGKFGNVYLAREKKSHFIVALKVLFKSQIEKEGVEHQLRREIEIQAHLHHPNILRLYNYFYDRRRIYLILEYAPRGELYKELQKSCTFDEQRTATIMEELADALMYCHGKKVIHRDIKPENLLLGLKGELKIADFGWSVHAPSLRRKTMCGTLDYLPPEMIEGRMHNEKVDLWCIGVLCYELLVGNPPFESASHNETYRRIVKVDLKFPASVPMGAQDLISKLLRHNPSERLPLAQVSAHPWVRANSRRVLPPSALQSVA
Chain of PAK2 (Q13177 whole entry): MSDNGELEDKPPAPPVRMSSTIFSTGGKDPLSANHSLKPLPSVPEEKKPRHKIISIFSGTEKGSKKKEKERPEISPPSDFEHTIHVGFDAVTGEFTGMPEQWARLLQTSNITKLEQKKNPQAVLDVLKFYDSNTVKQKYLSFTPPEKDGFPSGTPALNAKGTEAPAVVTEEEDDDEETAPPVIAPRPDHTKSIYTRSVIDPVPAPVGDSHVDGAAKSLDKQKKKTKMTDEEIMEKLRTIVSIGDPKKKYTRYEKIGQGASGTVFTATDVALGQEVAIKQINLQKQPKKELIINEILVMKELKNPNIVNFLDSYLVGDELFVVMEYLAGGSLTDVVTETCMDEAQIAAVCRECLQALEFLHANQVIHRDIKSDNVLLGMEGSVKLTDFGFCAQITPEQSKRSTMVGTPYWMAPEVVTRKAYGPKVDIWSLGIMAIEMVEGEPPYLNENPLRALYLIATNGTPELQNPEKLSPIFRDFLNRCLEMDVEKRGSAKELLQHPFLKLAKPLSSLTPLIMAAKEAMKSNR
Chain of DDR2 (Q16832 whole entry): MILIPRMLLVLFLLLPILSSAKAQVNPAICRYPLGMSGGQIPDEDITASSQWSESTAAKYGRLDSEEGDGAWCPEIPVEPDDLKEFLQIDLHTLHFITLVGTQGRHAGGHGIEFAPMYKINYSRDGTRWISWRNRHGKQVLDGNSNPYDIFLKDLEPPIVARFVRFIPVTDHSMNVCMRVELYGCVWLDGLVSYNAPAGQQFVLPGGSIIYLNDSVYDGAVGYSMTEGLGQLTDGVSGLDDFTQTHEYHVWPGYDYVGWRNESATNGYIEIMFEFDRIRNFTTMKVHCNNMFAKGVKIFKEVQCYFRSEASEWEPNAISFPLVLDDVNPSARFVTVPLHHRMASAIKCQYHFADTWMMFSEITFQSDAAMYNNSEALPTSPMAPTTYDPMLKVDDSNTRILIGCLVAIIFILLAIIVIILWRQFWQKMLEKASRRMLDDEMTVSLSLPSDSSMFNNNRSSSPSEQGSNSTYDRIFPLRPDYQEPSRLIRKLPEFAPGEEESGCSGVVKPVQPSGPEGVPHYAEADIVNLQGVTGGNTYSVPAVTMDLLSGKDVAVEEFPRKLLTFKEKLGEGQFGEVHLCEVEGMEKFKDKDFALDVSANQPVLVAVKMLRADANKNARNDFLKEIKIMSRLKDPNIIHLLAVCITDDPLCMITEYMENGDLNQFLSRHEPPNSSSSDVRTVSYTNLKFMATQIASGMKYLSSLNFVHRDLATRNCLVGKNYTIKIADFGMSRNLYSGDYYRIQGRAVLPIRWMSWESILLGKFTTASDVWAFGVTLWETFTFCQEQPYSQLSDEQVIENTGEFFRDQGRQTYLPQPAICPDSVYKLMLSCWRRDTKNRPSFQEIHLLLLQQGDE
Chain of DYRK2 (Q92630 whole entry): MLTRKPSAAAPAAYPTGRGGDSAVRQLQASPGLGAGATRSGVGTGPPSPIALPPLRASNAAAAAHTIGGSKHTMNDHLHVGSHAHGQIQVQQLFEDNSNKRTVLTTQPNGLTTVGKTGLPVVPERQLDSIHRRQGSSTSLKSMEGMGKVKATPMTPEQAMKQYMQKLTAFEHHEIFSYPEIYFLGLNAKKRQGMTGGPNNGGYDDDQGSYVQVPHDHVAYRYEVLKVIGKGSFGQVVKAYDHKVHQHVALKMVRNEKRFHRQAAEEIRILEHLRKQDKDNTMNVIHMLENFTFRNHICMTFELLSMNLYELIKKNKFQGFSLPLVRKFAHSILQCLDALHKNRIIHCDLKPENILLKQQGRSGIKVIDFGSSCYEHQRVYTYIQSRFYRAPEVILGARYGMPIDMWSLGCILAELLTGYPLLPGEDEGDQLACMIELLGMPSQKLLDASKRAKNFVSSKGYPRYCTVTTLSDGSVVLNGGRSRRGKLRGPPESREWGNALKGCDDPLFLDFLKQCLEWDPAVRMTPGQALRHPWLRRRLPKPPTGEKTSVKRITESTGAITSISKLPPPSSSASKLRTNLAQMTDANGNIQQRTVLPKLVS
Chain of MAK (P20794 whole entry): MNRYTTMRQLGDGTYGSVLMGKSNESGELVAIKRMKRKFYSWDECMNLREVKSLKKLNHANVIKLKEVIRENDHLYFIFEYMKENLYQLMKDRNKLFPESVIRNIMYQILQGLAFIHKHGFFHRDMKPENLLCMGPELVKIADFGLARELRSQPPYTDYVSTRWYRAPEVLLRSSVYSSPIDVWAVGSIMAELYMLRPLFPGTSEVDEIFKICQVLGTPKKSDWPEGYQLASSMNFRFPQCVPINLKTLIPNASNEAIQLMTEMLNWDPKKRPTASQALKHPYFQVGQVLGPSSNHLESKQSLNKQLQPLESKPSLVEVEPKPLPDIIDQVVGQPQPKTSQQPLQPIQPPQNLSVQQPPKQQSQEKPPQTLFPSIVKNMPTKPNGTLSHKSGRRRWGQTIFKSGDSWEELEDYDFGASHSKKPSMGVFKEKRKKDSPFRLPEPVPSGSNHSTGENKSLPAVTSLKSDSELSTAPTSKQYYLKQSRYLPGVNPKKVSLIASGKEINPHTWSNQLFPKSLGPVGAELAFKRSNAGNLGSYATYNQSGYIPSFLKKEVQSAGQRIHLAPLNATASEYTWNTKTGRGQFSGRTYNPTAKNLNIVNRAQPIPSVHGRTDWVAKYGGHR
T3 sequence (Q8NEB9 whole entry): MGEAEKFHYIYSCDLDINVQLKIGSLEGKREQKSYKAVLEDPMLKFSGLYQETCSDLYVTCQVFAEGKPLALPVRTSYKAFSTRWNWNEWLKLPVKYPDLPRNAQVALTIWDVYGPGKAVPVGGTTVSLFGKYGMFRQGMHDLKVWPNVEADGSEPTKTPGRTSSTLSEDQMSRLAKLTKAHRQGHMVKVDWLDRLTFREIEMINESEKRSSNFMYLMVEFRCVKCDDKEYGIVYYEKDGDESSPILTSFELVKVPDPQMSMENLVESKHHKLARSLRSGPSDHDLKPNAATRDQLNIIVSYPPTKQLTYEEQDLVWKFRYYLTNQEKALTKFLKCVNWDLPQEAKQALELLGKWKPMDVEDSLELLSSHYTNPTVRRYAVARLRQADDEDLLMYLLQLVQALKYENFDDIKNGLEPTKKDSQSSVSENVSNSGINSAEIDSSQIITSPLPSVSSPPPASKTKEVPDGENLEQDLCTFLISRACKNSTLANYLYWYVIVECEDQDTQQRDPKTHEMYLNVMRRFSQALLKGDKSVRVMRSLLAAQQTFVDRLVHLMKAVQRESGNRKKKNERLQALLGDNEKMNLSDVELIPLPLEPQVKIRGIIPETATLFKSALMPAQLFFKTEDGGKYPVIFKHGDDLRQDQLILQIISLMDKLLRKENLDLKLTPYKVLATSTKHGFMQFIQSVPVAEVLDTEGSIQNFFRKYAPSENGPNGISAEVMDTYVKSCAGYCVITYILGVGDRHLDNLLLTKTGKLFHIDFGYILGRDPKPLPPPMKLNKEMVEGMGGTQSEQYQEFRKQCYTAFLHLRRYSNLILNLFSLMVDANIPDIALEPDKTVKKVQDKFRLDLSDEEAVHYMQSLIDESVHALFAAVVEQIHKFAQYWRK

For `C[C@@H]1CC(=O)NN=C1c1ccc(NN=C(C#N)C#N)cc1` [levosimendan], the remaining binding at 100 µM on MAK came out at 100%; on MET it was 55%; on EIF2AK1, 100%; in assay [1], 95%; at CDC2L1, 100%; at VPS34, 100%. Further, the remaining binding at 100 µM was 28% on AURKB (setting [5]); 60% in assay [2]; 79% at DDR2; 85% at DYRK2; 68% in assay [3]; 78% on PAK2. The remaining binding at 100 µM at NEK3 was 78%; on DRAK2 (setting [5]), 20%; on BMX, 77%; on CDK4-cyclinD3, 100%; at CAMK2D it was 87%; on ABL2, 89%. In addition, on NIM1, the remaining binding at 100 µM was 65%. The remaining binding at 10 µM stood at 75% at AURKB (setting [4]) and 99% on DRAK2 (setting [4]).
